# Assay results published in article PMC5168863, “Synthesis and functionalization of protease-activated nanoparticles with tissue plasminogen activator peptides as targeting moiety and diagnostic tool for pancreatic cancer” (Journal of Nanobiotechnology, 2016).
# Residues, ends and D or L forms follow the SMILES beside them. *: point of attachment. 5FAM = O=C1OC2(c3ccc(O)cc3Oc3cc(O)ccc32)c2ccc(C(=O)*)cc21
# Tests used:
# Gal-3 = Gal-3 (Homo sapiens, UniProt P17931); experiment: Microscale thermophoresis (MST) binding of t-PA peptides to galectin-3; settings: for Kd: MST, human galectin; for Fold diff.: versus rh t-PA protein
# Description: (§1) To investigate the binding efficiency of the short t-PA-ligands [10 to 29-AA-long peptides fluorescein or rhodamine-labelled] to galectin-1, we applied the microscale thermophoresis (MST) technology which allows quantitative analysis of protein interactions in solutions. By using MST, individual affinity constants between the different t-PA peptides and galectins (Gal-1, -3, -4) previously characterized to be over-expressed in PDAC were determined and compared to the recombinant human t-PA protein (rh t-PA) as presented in Table 2.
# (§2) In order to investigate the binding properties of the modified t-PA-peptides [10-29 AA-long fluorescence-labeled peptides] as ligands to galectins, the microscale thermophoresis (MST) (Monolith NT.115 MST instrument, NanoTemper Technologies GmbH, Munich Germany) technology was employed. MST allows a quantitative analysis of protein interactions in solution and is based on the directed motion of molecules in temperature gradients generated locally by an infrared laser, whereas the molecular mobility in the temperature gradient is analyzed via fluorescence. MST is highly sensitive to all types of binding-induced changes of molecular properties like protein size, charge, hydration shell or conformation. The binding modes such as dimerization, cooperativity, and competition are quantifiable and adaptable to diverse requirements of different biomolecules. Therefore, MST turned out as an ideal method for the interaction studies of t-PA and t-PA-derived peptides with galectins.
# Gal-1 = Gal-1 (Homo sapiens, UniProt P09382); experiment: Microscale thermophoresis (MST) binding of t-PA peptides to galectin-1; settings: for Kd: MST, human galectin; for Fold diff.: versus rh t-PA protein
# Description: as §1, §2
# Gal-4 = biological target: T1, Gal-4 (Homo sapiens, UniProt P56470); experiment: Microscale thermophoresis (MST) binding of t-PA peptides to galectin-4; settings: for Kd: MST, human galectin; for Fold diff.: versus rh t-PA protein
# T1 sequence (P56470 1-323): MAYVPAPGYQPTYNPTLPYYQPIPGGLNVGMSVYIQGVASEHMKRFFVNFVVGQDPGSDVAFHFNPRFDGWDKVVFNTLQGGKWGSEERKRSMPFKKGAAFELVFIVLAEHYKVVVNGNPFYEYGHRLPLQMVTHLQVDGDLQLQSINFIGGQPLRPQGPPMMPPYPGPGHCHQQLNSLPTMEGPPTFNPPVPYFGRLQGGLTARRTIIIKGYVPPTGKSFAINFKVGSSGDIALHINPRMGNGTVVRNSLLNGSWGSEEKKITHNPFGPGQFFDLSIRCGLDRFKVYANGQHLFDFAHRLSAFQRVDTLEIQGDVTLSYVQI
# Description: as §1, §2
# Panc-1 = experiment: Flow cytometry, binding of peptide/NPs to Panc-1 cells; type: cell-based, human
# Description: (§3) With the first flow cytometry experiments we analyzed the nanoparticle-core (Core CAN-maghemite (Ce-Fe2O3) and the t-PA-peptide1-lactose (t-PApep1lac) linked to the core. This was to determine whether the fluorescein-labelled t-PA-peptides, covalently linked to NPs, bind to Panc-1 and Su86.86 cells and if the cells are able to internalize the NPs. In a parallel set of experiments the binding of the t-PA-peptide alone (without linkage to NPs) to the pancreatic cancer cells was assessed. For the experimental set-up a concentration of t-PA peptide of 1.25 µM was applied and the cells were exposed to the NPs with and without peptides for different incubation periods of 2, 6, 12 and 24 h.
# (§4) Flow cytometry (fluorescent-activated cell sorting/FACS) analysis was used to determine the binding of fluorescein-labeled t-PA-pep1Lac and t-PApep1-vectorized nanoparticles (CAN-Mag@PNPs-tPApep1Lac and CAN-Mag@PNPs-PEG-REGAcp-PEG/tPA-pep1Lac) on the surfaces of Panc-1 and SU.86.86 cells. Additional FACS analyses were performed to monitor concentration and time-dependent binding efficiency and changes caused by addition of competitors (galactose, lactose) or in the presence of active MMP-9, which cleaves the REGAcp sequence. Deshielding of CAN-Mag@PNPs-PEG-REGAcp-PEG/tPA-pep1Lac was carried out by pre-activated MMP-9 (20 µM proMMP-9 and 200 nM of catalytic domain cdMMP-3 in 100 mM Tris, 100 mM NaCl, 10 mM CaCl2, pH 7.4 for 2 h at 37 °C). The active MMP-9 (50 µl, 10 µM) was incubated in the presence of 450 µl NPs and subsequently added to cells. Nanoparticle-exposed cell monolayers (of 2 × 10^5 cells/2 ml medium in 6 well plates), with or without treatment, were harvested 2, 12, 24 h post-exposure using 1 mM EDTA–phosphate-buffered saline (PBS) detachment buffer, (Miltenyi GmbH, Bergisch Gladbach, Germany), washed 3 times in PBS, incubated for 45 min on ice and subsequently subjected to analysis in a BD™ LSR II flow cytometer and Software Program: BD FACSDiva 7.0 (Becton–Dickinson,)
# Su.86.86 = experiment: Flow cytometry, binding of peptide/NPs to Su.86.86 cells; type: cell-based, human
# Description: as §3, §4
# Chain of Gal-1 (P09382 whole entry): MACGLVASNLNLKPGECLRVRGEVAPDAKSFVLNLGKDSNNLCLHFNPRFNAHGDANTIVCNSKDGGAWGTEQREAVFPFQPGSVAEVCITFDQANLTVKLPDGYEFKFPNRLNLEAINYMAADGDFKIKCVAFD
# Chain of Gal-3 (P17931 whole entry): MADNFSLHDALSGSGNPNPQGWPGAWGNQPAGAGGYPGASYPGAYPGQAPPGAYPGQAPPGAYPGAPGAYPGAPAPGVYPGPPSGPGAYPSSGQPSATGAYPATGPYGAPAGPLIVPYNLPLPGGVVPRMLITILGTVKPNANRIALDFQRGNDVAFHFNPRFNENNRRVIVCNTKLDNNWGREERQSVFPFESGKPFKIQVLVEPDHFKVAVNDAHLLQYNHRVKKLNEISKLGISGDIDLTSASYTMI
Compound,Kd (Gal-3; N-Fluo. labelled ligand) [µM],Fold diff. (Gal-3; N-Fluo. labelled ligand),Kd (Gal-1; N-Fluo. labelled ligand) [nM],Fold diff. (Gal-1; N-Fluo. labelled ligand),Kd (Gal-4; N-Fluo. labelled ligand) [µM],Fold diff. (Gal-4; N-Fluo. labelled ligand),"Percentage of cells labeled with nanoparticles (Panc-1; Panc-1, 2 h incubation) [%]","Percentage of cells labeled with nanoparticles (Panc-1; Panc-1, 12 h incubation) [%]","Percentage of cells labeled with nanoparticles (Panc-1; Panc-1, 24 h incubation) [%]",Kd (Gal-3; C-Fluo. labelled ligand) [µM],Fold diff. (Gal-3; C-Fluo. labelled ligand),"Percentage of cells labeled with nanoparticles (Su.86.86; Su.86.86, 2 h incubation) [%]","Percentage of cells labeled with nanoparticles (Su.86.86; Su.86.86, 12 h incubation) [%]","Percentage of cells labeled with nanoparticles (Su.86.86; Su.86.86, 24 h incubation) [%]",Kd (Gal-1; C-Fluo. labelled ligand) [nM],Fold diff. (Gal-1; C-Fluo. labelled ligand),Kd (Gal-4; C-Fluo. labelled ligand) [µM],Fold diff. (Gal-4; C-Fluo. labelled ligand)
CC(C)C[C@H](NC(=O)[C@H](C)NC(=O)[C@H](CO)NC(=O)[C@H](CO)NC(=O)[C@H](CC(N)=O)NC(=O)[C@H](Cc1c[nH]c2ccccc12)NC(=O)[C@H](CC(N)=O)NC(=O)[C@@H](NC(=O)[C@H](CS)NC(=O)[C@H](CCC(=O)O)NC(=O)[C@H](C)NC(=O)CNC(=O)[C@H](CO)NC(=O)[C@H](CCC(=O)O)NC(=O)[C@H](C)NC(=O)[C@@H](NC(=O)[C@H](CO)NC(=O)[C@H](Cc1c[nH]c2ccccc12)NC(=O)[C@@H](NC(=O)CNC(=O)c1ccc2c(c1)C(=O)OC21c2ccc(O)cc2Oc2cc(O)ccc21)[C@@H](C)O)[C@@H](C)O)[C@@H](C)O)C(=O)N[C@@H](C)C(=O)N[C@@H](CCC(N)=O)C(=O)N[C@@H](CCCCN)C(=O)N1CCC[C@H]1C(=O)N[C@@H](Cc1ccc(O)cc1)C(=O)N[C@@H](CO)C(=O)NCC(=O)N[C@@H](CCCNC(=N)N)C(=O)O [t-PA-pep-1] (5FAM-GTWSTAESGAECTNWNSSALAQKPYSGR-OH),272,−35.4,141000,−28.7,34,1.5,–,–,–,–,–,–,–,–,–,–,–,–
CC(C)C[C@H](NC(=O)[C@H](C)NC(=O)[C@H](CO)NC(=O)[C@H](CO)NC(=O)[C@H](CO[C@@H]1O[C@H](CO)[C@@H](O[C@@H]2O[C@H](CO)[C@H](O)[C@H](O)[C@H]2O)[C@H](O)[C@H]1O)NC(=O)[C@H](Cc1c[nH]c2ccccc12)NC(=O)[C@H](CC(N)=O)NC(=O)[C@@H](NC(=O)[C@H](CS)NC(=O)[C@H](CCC(=O)O)NC(=O)[C@H](C)NC(=O)CNC(=O)[C@H](CO)NC(=O)[C@H](CCC(=O)O)NC(=O)[C@H](C)NC(=O)[C@@H](NC(=O)[C@H](CO)NC(=O)[C@H](Cc1c[nH]c2ccccc12)NC(=O)[C@@H](NC(=O)CN)[C@@H](C)O)[C@@H](C)O)[C@@H](C)O)C(=O)N[C@@H](C)C(=O)N[C@@H](CCC(N)=O)C(=O)N[C@@H](CCCCN)C(=O)N1CCC[C@H]1C(=O)N[C@@H](Cc1ccc(O)cc1)C(=O)N[C@@H](CO)C(=O)NCC(=O)N[C@@H](CCCNC(=N)N)C(=O)N[C@@H](CCCCNC(=O)c1ccc2c(c1)C(=O)OC21c2ccc(O)cc2Oc2cc(O)ccc21)C(=O)O [t-PA-pep-1lac],–,–,286,17,–,–,2.6,87.6,86.3,0.73,10.4,25.7,45.8,36.6,200,25,12.7,4.03
rh t-PA protein: recombinant human t-PA protein [reference compound],7.68,1,4920,1,51.2,1,–,–,–,–,–,–,–,–,–,–,–,–
